Experimental findings from patent publication US9988407B2, “Prodrugs of prostate specific membrane antigen (PSMA) inhibitor” (THE JOHNS HOPKINS UNIVERSITY, priority 2014, dated 2018) are described below.

Values joined by “and” are separate entries in the source; they are usually repeats but may differ in a detail not shown here. Equal entries are not always repeated.

Data set [1] is described as follows: Metabolic stability in monkey liver microsomes. Type of data set: in vitro ADME. Particulars: 10 μM, 37° C. On the procedure:
(§1) For metabolic stability, plasma (mouse, dog, monkey and human) and liver microsomes (mouse, dog, monkey and human) were used. For stability, prodrugs (10 μM) were spiked in each matrix and incubated in an orbital shaker at 37° C. At predetermined times (0, 30 and 60 min), 100 μL aliquots of the mixture in triplicate were removed and the reaction quenched by addition of three times the volume of ice cold acetonitrile spiked with the internal standard (losartan 5 μM). The samples were vortexed for 30 s and centrifuged 12000 g for 10 min. 50 μL supernatant diluted with 50 μL water was transferred to a 250 μL polypropylene vial sealed with a Teflon cap. Prodrug disappearance was monitored over time using a liquid chromatography and tandem mass spectrometry (LC/MS/MS) method as described below.
(§2) For LC/MS/MS, prodrugs were separated with Thermo Scientific Accela UPLC system coupled to Accela open autosampler on an Agilent C18 (100×2.1 mm id) UPLC column. The autosampler was temperature controlled and operating at 10° C. The mobile phase used for the chromatographic separation was composed of acetonitrile/water containing 0.1% formic acid and was run at a flow rate of 0.5 mL/minute for 4.5 minutes using gradient elution. The column effluent was monitored using TSQ Vantage triple-quadrupole mass spectrometric detector, equipped with an electrospray probe set in the positive ionization mode. Samples were introduced into the ionization source through a heated nebulized probe (350° C.).
(§3) For quantification of compound remaining, disappearance of prodrugs was measured from ratio of peak areas of analyte to IS. Percentage remaining was calculated in the following manner: […]
(In general: Liver microsomes are vesicles of endoplasmic reticulum, rich in cytochrome P450 enzymes.)

A short description of data set [2]: In vivo pharmacokinetics in mice, peroral, bioanalysis method 1 (total prodrug exposure). Particulars: mice, oral dosing. A digest of the protocol:
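Mice dosed orally; plasma sampled by cardiac puncture 0–4 h (n=3 per time) or at 30 min only. Total prodrug measured after methanol extraction and n-butanol/3N HCl derivatization by UPLC-MS/MS. Non-compartmental PK: observed Cmax/Tmax, AUC by log-linear trapezoidal rule, t1/2=0.693/ke.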

A short description of data set [3]: Metabolic stability in monkey plasma. The class given is in vitro ADME. As to conditions: 10 μM, 37° C. On the procedure:
as §1, §2, §3

Data set [4] in a line: Metabolic stability in human liver microsomes. Type of data set: in vitro ADME. Particulars: 10 μM, 37° C. A digest of the protocol: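 Prodrugs at 10 μM were incubated in plasma or liver microsomes at 37° C, with triplicate samples taken at 0, 30 and 60 min and quenched in cold acetonitrile. Loss of prodrug was followed by LC/MS/MS in positive electrospray mode. Percent remaining came from the analyte-to-internal-standard peak-area ratio.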

In the case of `CC(C)OC(=O)OCOC(=O)C(CCC(=O)O)CP(=O)(OCOC(=O)OC(C)C)OCOC(=O)OC(C)C` (stereo not shown) [Compound 10], the Percentage remaining in data set [1] (0 min) amounted to 100%; in data set [1] (30 min) it was 0%; in data set [1] (60 min), 0%; in data set [3] (0 min), 100%; in data set [3] (30 min), 50%; in data set [3] (60 min), 11%. In addition, the Percentage remaining in data set [4] (0 min) was 100%; in data set [4] (30 min, listed as TRIS-POC) it was 5% and 3%; in data set [4] (60 min) it was 0%. For the same molecule, the “permeability in vivo” value in data set [2] is on record as “highest permeability”.
